Here are results for ten compounds from publication PMC6337391 (Molecules, 2019).

pIC50: −log10 of the molar value.

The nature of series [1]: Reducing activity with the stable radical DPPH. As to the method:
The chalcones were studied for the antioxidant activity (reducing activity RA%) by the use of the stable free radical 2,2-diphenyl-1-picrylhydrazyl radical (DPPH) at concentrations 0.05 mM after 20 and 60 min (Table 2). In this procedure, the dominant chemical reaction involved is the reduction of the DPPH radical by single electron transfer from the antioxidant. […] For the sake of comparison, we measured the RA% values for the intermediate double ethers d which were included in the Table 2.
To a solution of DPPH (final concentration 0.05 mM) in absolute ethanol an equal volume of the compounds solution in DMSO (stock solution 10 mM) dissolved in ethanol was added. Absolute ethanol was used as a control. The concentrations of the solutions of the compounds were 0.05 and 0.1 mM. The absorbance was recorded at 517 nm at room temperature after 20 and 60 min [29] (Table 2).
A general note: The DPPH test is a chemical assay of radical scavenging.

Series [2] in a line: ABTS•+ decolorization assay. As to the method:
The decolorization assay is used to evaluate the antioxidant activity. The ABTS^•+ cationic radical is derived from the direct oxidation of ABTS by potassium persulfate. No involvement of an intermediary radical is observed. The addition of electron-donating antioxidants reduce ABTS^•+.
Stock solutions of the tested compounds in DMSO (10 mM) were diluted. […] aliquots of each sample were added into the ABTS·^+ solution and the absorbance was recorded at room temperature. Trolox was used as a standard.

The target of the next series is T1, soybean lipoxygenase (Glycine max, UniProt P08170).
T1 sequence (P08170 1-839): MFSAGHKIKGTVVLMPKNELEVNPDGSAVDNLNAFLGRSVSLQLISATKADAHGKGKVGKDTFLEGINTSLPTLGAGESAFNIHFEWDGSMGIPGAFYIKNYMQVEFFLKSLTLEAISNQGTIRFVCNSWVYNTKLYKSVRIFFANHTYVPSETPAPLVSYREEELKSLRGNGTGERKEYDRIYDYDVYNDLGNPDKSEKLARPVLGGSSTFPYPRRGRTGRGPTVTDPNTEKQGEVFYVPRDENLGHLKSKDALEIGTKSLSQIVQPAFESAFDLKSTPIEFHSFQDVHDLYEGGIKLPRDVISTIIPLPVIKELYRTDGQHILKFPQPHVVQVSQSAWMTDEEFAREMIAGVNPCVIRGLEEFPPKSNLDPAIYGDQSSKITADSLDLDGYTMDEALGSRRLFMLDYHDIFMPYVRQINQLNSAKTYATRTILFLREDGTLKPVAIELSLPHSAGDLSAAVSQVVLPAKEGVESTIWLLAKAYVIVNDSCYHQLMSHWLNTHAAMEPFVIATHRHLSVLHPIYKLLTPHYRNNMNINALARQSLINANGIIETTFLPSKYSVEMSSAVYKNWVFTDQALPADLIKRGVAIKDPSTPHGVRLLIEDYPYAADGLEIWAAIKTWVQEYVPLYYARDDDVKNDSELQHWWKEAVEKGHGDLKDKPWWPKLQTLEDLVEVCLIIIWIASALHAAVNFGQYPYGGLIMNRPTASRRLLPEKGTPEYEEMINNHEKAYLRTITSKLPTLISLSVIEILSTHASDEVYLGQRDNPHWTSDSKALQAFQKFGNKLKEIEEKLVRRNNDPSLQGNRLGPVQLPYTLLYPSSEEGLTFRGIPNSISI
The series is described as follows: biochemical. The format is biochemical. The following applies: soybean LOX; for pIC50: read-out: LOX IC50. The source says: In our experiments we used soybean lipoxygenase. Designing agents to modulate activities of the variety of so closely homologous enzymes, such as different LOXs, require an intimate knowledge of their 3D structures, as well as information about metabolism of the potential xenobiotics. […] Due to lack of sufficiently-purified human enzymes most of the research has been done on soybean LOX [52, 53]. Although this enzyme is not identical to the mammalian one, it seems that there is a sufficient qualitative correlation between values for enzyme inhibition with the two enzymes.
In vitro study was evaluated as reported previously. The tested compounds as stock solutions were dissolved in DMSO. Ten microliters (10 μL) were incubated at room temperature with sodium linoleate ([…]) and 0.2 mL of enzyme solution (1/9 × 10^−4 w/v in saline) in buffer pH 9 (tris) at room temperature (final volume 1 mL). […] Several concentrations were used for the determination of IC50 values.

Series [3] can be described thus: Inhibition of linoleic acid lipid peroxidation (AAPH). The source says:
The water soluble 2,2′-azobis(2-amidinopropane) hydrochloride (AAPH) generates in vitro free radicals through spontaneous thermal decomposition. […] Overall, chalcones a, b, and c present anti-lipid peroxidation activity. […] The inhibiting activities for the rest b chalcones ranged from 15–44%. The intermediate ethers are moderate inhibitors. […] This might be correlated with the presence of the double C=C–COCH3 group. […] Both have a long ether chain in their structure.
In an aqueous solution spectrophotometrically at 234 nm the production of conjugated diene hydro peroxide by oxidation of sodium linoleate was monitored and recorded according to our previous published experimental conditions, using 10 µL of the 16 mM sodium linoleate solution added to the UV cuvette containing 930 μL of 0.05 M phosphate buffer, pH 7.4 pre-thermostated at 37 °C, under air by the addition of 50 μL of 40 mM AAPH solution, which was used as a free radical initiator. Ten microliters (10 μL) of the appropriate solutions of the tested compounds were added in the mixture, whereas same level of DMSO was used as a blank for the measurement of lipid oxidation. The rate of oxidation at 37 °C was monitored by recording the increase in absorption at 234 nm caused by conjugated diene hydro peroxides.

Series [4] in a line: Lipophilicity as RM values by RP-TLC. The format is physicochemical. More on the design: key: RM = log[(1/Rf) − 1]. The following applies: methanol/water 70/30, SD < 10%. The text has this: It is well-documented and discussed in the literature that lipophilicity is a very significant physicochemical property which may critically affect distribution, bioavailability, metabolic activity and elimination, all the useful characteristics for the kinetics of biologically active compounds. Thus, we attempted to determine experimentally the lipophilicity of the synthesized compounds from the RPTLC method as RM values. The method is considered to be a reliable, fast and convenient method for expressing lipophilicity. Moreover, many calculated methods were used in order to predict the logP value.
Reversed phase TLC (RP-TLC) was performed on silica gel plates impregnated with 5% (v/v) liquid paraffin in light petroleum ether. The mobile phase was a methanol/water mixture (70/30, v/v). The plates were developed in closed chromatography tanks saturated with the mobile phase at 24 °C. Spots were detected under UV light. Five individual measurements of Rf values were recorded and used for the determination of RM using the equation RM = log [(1/Rf) − 1]. (Table 3).

The pIC50 is the negative decadic logarithm of the IC50, by convention in mol/L. Take `O=C(/C=C/c1ccc(OCc2ccc(Br)cc2)cc1)c1ccccc1O` [b1, (E)-3-(4-((4-bromobenzyl)oxy)phenyl)-1-(2-hydroxyphenyl) prop-2-en-1-one]: in series [1], the “RA% 100 μM 20 min” value was 46% and the “RA% 100 μM 60 min” value was found to be 0%. Also, the “ABTS•+ Inhb. % @ 100 μM” value in series [2] turned out to be 40%. On soybean lipoxygenase, the “% LOX Inhb. @ 100 μM” value came out at 89% and the pIC50 is 4.25. Further, the “AAPH% @ 100 μM (anti-lipid peroxidation)” value in series [3] is recorded as 89%. Further, in series [4], the RM was −0.91.

For the compound `CC(/C=C/C(=O)c1ccccc1O)=C\c1ccccc1` [b8, (2E,4E)-1-(2-hydroxyphenyl)-4-methyl-5-phenylpenta-2,4-dien-1-one], in series [1], the “RA% 100 μM 20 min” value is listed as 17% and the “RA% 100 μM 60 min” value was found to be 3%. The “ABTS•+ Inhb. % @ 100 μM” value in series [2] worked out at 12%. In addition, the “% LOX Inhb. @ 100 μM” value at soybean lipoxygenase came out at 25%. Moreover, the “AAPH% @ 100 μM (anti-lipid peroxidation)” value in series [3] is recorded as 25%. In addition, in series [4], the RM was −0.79.

As for `O=C(/C=C/c1ccccc1)c1ccc(O)cc1` [a13, (E)-1-(4-hydroxyphenyl)-3-phenylprop-2-en-1-one], in series [1], the “RA% 100 μM 20 min” value was 7% and the “RA% 100 μM 60 min” value was 3%. Also, the “ABTS•+ Inhb. % @ 100 μM” value in series [2] is “No”. Further, the “% LOX Inhb. @ 100 μM” value on soybean lipoxygenase stood at 23%. Moreover, in series [3], the “AAPH% @ 100 μM (anti-lipid peroxidation)” value worked out at 38%. Besides, in series [4], the RM is given as −0.73.

As for `CN(C)c1ccc(/C=C/C=C/C(=O)c2ccccc2O)cc1` [b3, (2E,4E)-5-(4-(dimethylamino)phenyl)-1-(2-hydroxyphenyl)penta-2,4-dien-1-one], in series [1], the “RA% 100 μM 20 min” value was 72% and the “RA% 100 μM 60 min” value was 15%. Moreover, the “ABTS•+ Inhb. % @ 100 μM” value in series [2] came out at 96%. For the same compound, at soybean lipoxygenase, the “% LOX Inhb. @ 100 μM” value is 100% and the negative logarithm of the IC50 (pIC50) is 4.24. Also, in series [3], the “AAPH% @ 100 μM (anti-lipid peroxidation)” value is 100%. The RM in series [4] is reported as −0.66.

With `O=C(/C=C/c1ccccc1)c1ccc(OCCCOc2ccc(C(=O)/C=C/c3ccccc3)cc2)cc1` [c13, (2E,2′E)-1,1′-((propane-1,3-diylbis(oxy))bis(4,1-phenylene))bis(3-phenylprop-2-en-1-one)], in series [1], the “RA% 100 μM 20 min” value was “No” and the “RA% 100 μM 60 min” value is reported as “no”. The “ABTS•+ Inhb. % @ 100 μM” value in series [2] is “No”. Further, at soybean lipoxygenase, the “% LOX Inhb. @ 100 μM” value is on record as 76% and the pIC50 is 4.19. The “AAPH% @ 100 μM (anti-lipid peroxidation)” value in series [3] is on record as 71%. This compound also gave an RM in series [4] of 0.34.

For `O=C(/C=C/c1ccccc1)c1ccccc1O` [b13, (E)-1-(2-hydroxyphenyl)-3-phenylprop-2-en-1-one], in series [1], the “RA% 100 μM 20 min” value was found to be 10% and the “RA% 100 μM 60 min” value turned out to be 0%. Moreover, the “ABTS•+ Inhb. % @ 100 μM” value in series [2] is “No”. For the same compound, on soybean lipoxygenase, the “% LOX Inhb. @ 100 μM” value was 14%. In addition, in series [3], the “AAPH% @ 100 μM (anti-lipid peroxidation)” value is on record as 15%. Also, the RM in series [4] is 0.43.

Regarding `CN(C)c1ccc(/C=C/C=C/C(=O)c2ccc(OCCCCOc3ccc(C(=O)/C=C/C=C/c4ccc(N(C)C)cc4)cc3)cc2)cc1` [eiii, (2E,2′E,4E,4′E)-1,1′-((butane-1,4-diylbis(oxy))bis(4,1-phenylene))bis(5-(4-(dimethylamino)phenyl)penta-2,4-dien-1-one)], in series [1], the “RA% 100 μM 20 min” value is reported as “No” and the “RA% 100 μM 60 min” value is “no”. In addition, the “ABTS•+ Inhb. % @ 100 μM” value in series [2] is given as “No”. Also, on soybean lipoxygenase, the “% LOX Inhb. @ 100 μM” value was 27%. Further, the “AAPH% @ 100 μM (anti-lipid peroxidation)” value in series [3] came to 47%. Further, the RM in series [4] was −0.07.

On to `O=C(/C=C/C=C/c1ccccc1)c1ccccc1O` [b7, (2E,4E)-1-(2-hydroxyphenyl)-5-phenylpenta-2,4-dien-1-one], for which, in series [1], the “RA% 100 μM 20 min” value is recorded as 13% and the “RA% 100 μM 60 min” value worked out at 0%. Further, the “ABTS•+ Inhb. % @ 100 μM” value in series [2] was 5%. The “% LOX Inhb. @ 100 μM” value on soybean lipoxygenase turned out to be 29%. Further, the “AAPH% @ 100 μM (anti-lipid peroxidation)” value in series [3] stood at 29%. In addition, the RM in series [4] is on record as −0.85.

On to `O=C(/C=C/c1cccc(Oc2ccccc2)c1)c1ccccc1O` [b2, (E)-1-(2-hydroxyphenyl)-3-(3-phenoxyphenyl) prop-2-en-1-one], for which, in series [1], the “RA% 100 μM 20 min” value came to 45% and the “RA% 100 μM 60 min” value is on record as 15%. The “ABTS•+ Inhb. % @ 100 μM” value in series [2] is listed as “No”. Moreover, the “% LOX Inhb. @ 100 μM” value on soybean lipoxygenase was 44%. Also, the “AAPH% @ 100 μM (anti-lipid peroxidation)” value in series [3] is 44%. This compound also displayed an RM in series [4] of 0.04.

In the case of `O=C(/C=C/C(Br)=C\c1ccccc1)c1ccccc1O` [b9, (2E,4E)-4-bromo-1-(2-hydroxyphenyl)-5-phenylpenta-2,4-dien-1-one], in series [1], the “RA% 100 μM 20 min” value came to 20% and the “RA% 100 μM 60 min” value was 8%. Also, the “ABTS•+ Inhb. % @ 100 μM” value in series [2] is “No”. The “% LOX Inhb. @ 100 μM” value at soybean lipoxygenase is 16%. For the same compound, the “AAPH% @ 100 μM (anti-lipid peroxidation)” value in series [3] is listed as 17%. Also, the RM in series [4] was −0.37.
